These results are taken from paper PMC6753193 (Frontiers in Microbiology, 2019).

Each structure is given as a SMILES string. Read-outs that look alike come from different tables or passages of the source.

One series has as its system EBOV. The following applies: cited from earlier work.
A further series concerns the target WT PP1 (Homo sapiens, UniProt P62136). The series can be described thus: biochemical. The class given is binding.
The target of series [1] is PP1 (Homo sapiens, UniProt P36873). The class given is cell-based.
For series [2] the following is noted: 1 h, pH 7.4.
For a further series, the target named is PP1α (Oryctolagus cuniculus, UniProt P62139). The class given is biochemical.
In another series the target is PP1:cdNIPP1 RATA (Homo sapiens, UniProt P62136). The series can be described thus: cell-based.
Series [3] deals with T1, PP1 (Homo sapiens, UniProt P62136). The class given is binding.
A further series relates to EBOV minigenome. The class given is cell-based, Ebola virus.
For series [4] the following is noted: 24 h.
The target of a further series is PP1 MUT:cdNIPP1 RATA (Homo sapiens, UniProt P62136, A299E/G274E/L73Y/Y70W). The series can be described thus: cell-based.
The next series deals with PP1:cdNIPP1 (Homo sapiens, UniProt P62136). The experiment in a line: cell-based.
Series [5] concerns the target T1, PP1. The class given is binding. The source holds these as a separate data set.
For series [6] the following is noted: 1 h, pH 7.4. This is another data set of the same source.
Series [7] can be described thus: in vitro. Conditions: mouse, serum.
Series [8] in a line: in vitro. Conditions: human.
For series [9], the system named is EBOV-eGFP. The experiment in a line: microbe, parasite or virus in culture. Format: cell-based, Ebola virus.
The next series has as its target PP1:cdNIPP1 helix MUT (Homo sapiens, UniProt P62136). The experiment in a line: cell-based.
In series [10] the test system is EBOV-eGFP. The series can be described thus: microbe, parasite or virus in culture. Format: cell-based, Ebola virus. Conditions: Zaire ebolavirus, Vero C1008, 48 h, read-out: IC50 EBOV inhibition (virus titer).
Another series deals with PP1 MUT:cdNIPP1 (Homo sapiens, UniProt P62136, A299E/G274E/L73Y/Y70W). The series can be described thus: cell-based.
The next series concerns EBOV VP30. Format: cell-based, Ebola virus.

Broadly, the IC50 is the concentration needed to halve the response being measured. The term Kd denotes the free concentration of one partner at which half of the binding sites on the other are occupied at equilibrium, for simple one-to-one binding. A low value points to tighter binding. As a reminder, the half-life is how long it takes for the measured level to halve. High values mean slow decline, low ones rapid decline.

WT PP1, sequence (P62136 7-300 limits assumed): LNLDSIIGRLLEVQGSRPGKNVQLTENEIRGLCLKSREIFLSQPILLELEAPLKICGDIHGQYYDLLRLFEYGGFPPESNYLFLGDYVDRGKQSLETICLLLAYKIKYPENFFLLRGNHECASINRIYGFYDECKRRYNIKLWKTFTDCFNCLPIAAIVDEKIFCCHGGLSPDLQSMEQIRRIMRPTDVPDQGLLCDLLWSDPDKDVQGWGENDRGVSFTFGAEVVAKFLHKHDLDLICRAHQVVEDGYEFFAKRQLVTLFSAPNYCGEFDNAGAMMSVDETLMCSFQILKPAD
T1 sequence (P62136 7-300 limits assumed): as above
PP1:cdNIPP1, sequence (P62136 whole entry, looked up): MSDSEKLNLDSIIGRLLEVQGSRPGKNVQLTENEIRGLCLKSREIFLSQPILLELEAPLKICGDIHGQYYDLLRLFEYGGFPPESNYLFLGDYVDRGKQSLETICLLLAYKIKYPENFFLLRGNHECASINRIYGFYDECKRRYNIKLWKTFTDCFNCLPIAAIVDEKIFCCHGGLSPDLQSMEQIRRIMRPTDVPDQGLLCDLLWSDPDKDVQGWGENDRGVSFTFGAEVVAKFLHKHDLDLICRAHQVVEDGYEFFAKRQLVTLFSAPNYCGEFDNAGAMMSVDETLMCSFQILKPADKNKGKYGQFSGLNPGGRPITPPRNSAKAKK
PP1:cdNIPP1 helix MUT, sequence (P62136 whole entry, looked up): as above
PP1:cdNIPP1 RATA, sequence (P62136 whole entry, looked up): as above
PP1 MUT:cdNIPP1, sequence (P62136 whole entry Y70W/L73Y/G274E/A299E, looked up): as the sequence (P62136 whole entry, looked up) above, with Y70W, L73Y, G274E, A299E counted along it
PP1 MUT:cdNIPP1 RATA, sequence (P62136 whole entry Y70W/L73Y/G274E/A299E, looked up): as the sequence (P62136 whole entry, looked up) above, with Y70W, L73Y, G274E, A299E counted along it
PP1α, sequence (P62139 whole entry, looked up): as the sequence (P62136 whole entry, looked up) above
PP1 (Homo sapiens, UniProt P36873), sequence (P36873 whole entry, looked up): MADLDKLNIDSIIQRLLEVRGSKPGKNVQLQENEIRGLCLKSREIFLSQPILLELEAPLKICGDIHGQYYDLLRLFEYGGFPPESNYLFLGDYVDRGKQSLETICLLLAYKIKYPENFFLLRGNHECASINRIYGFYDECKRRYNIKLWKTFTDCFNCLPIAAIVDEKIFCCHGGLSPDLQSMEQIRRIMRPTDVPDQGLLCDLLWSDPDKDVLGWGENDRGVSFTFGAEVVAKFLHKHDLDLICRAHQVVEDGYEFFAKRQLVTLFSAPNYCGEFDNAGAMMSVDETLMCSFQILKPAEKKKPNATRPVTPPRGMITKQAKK

On to `CCNC(=O)NC(=O)C(C)OC(=O)c1c2c(nc3ccccc13)/C(=C\c1cccc([N+](=O)[O-])c1)CCC2` (centres unmarked) [1E7], for which the EBOV inhibition entry in the series on EBOV is “inhibited EBOV”.
On to `CC[C@H](C)[C@H](NC(=O)[C@H](Cc1ccccc1)NC(=O)[C@H](CS)NC(=O)[C@@H](NC(=O)[C@H](CCC(N)=O)NC(=O)[C@H](CS)NC(=O)[C@H](Cc1c[nH]cn1)NC(=O)[C@H](Cc1ccccc1)NC(=O)[C@H](CS)NC(=O)[C@H](CS)NC(=O)[C@H](CCCCN)NC(=O)[C@H](CCCCN)NC(=O)[C@H](CCCNC(=N)N)NC(=O)[C@H](CC(C)C)NC(=O)[C@@H]1CCCN1C(=O)[C@H](CO)NC(=O)[C@H](CO)NC(=O)[C@@H]1CCCN1C(=O)[C@H](Cc1ccccc1)NC(=O)[C@H](CCCCN)NC(=O)[C@H](Cc1ccc(O)cc1)NC(=O)[C@@H]1CCCN1C(=O)[C@H](COP(=O)(O)O)NC(=O)[C@H](CCCNC(=N)N)NC(=O)[C@@H]1CCCN1C(=O)[C@@H](NC(=O)[C@@H](N)Cc1c[nH]cn1)[C@@H](C)CC)C(C)C)C(=O)N[C@H](C(=O)N[C@@H](CCCCN)C(=O)O)[C@@H](C)O` [pRb-Tat, reference compound], for which the Rmax on WT PP1 worked out at 212.4 RU.
On to `COc1ccc(C=C2CCc3c2nc2ccccc2c3C(=O)OC(C)C(=O)NC2CC2)cc1OC` (centres unmarked) [1E7-07], for which the “effect on PP1 cellular localization” value on PP1 [1] was “does not affect”. In addition, the “remained intact in mouse liver microsomes” value in [2] is “over 90%”. In addition, at PP1α, the “effect on PP1 enzymatic activity” value is listed as “no effect”. Further, the IC50 is above 20 µM at PP1:cdNIPP1 RATA; above 20 µM at PP1 MUT:cdNIPP1 RATA; 3700 nM at PP1:cdNIPP1; 4.3 µM against PP1:cdNIPP1 helix MUT; 8.6 µM with EBOV-eGFP [10]; 4.5 µM against PP1 MUT:cdNIPP1. Besides, on PP1 [3], the “competition with pRb-Tat peptide binding to PP1” value is “competed dose-dependently”. Further, the “inhibition of EBOV gene expression (Renilla luciferase)” value with EBOV minigenome is given as “strongly inhibit”. The “remained in mouse serum” value in series [4] is on record as 25%. Also, the “effect on cellular viability” value in the series with HEK293T cells is on record as “no effect on cellular viability”. Binding on WT PP1 was put at a Kd of 661 nM. This molecule showed an Rmax on WT PP1 of 9.763 RU. Also, on WT PP1, the kd was 0.0009566 s⁻¹. Also, the kon on WT PP1 (pH 7.4, read-out: ka) was found to be 1450 M⁻¹ s⁻¹. Further, for the setting “human, serum, 24 h”, the “remaining in human serum” value is on record as “no degradation”. The “protection of peptide 75[…]96 from ELNLLB painting” value on PP1 [5] is on record as “over 90%”. In addition, on PP1 [5], the “recovered peptide signals compared to the control (protection from ELNLLB painting)” value was “over 70%”. Further, the “remaining in human liver microsomes” value in series [6] came out at 90%. The same molecule showed a half-life in the series “in vitro [7]” of 360 min. The “toxicity (Viral ToxGlo)” value in the series with Vero-E6 cells was “no toxicity”. Besides, the CC50 in “in vitro [8]” was above 300 µM. Moreover, the “EBOV inhibitory activity (comparison among analogs)” value with EBOV-eGFP [9] is “best EBOV inhibitory activity”. In addition, in the series with EBOV-eGFP [9] (Zaire ebolavirus, Vero C1008, 72 h, read-out: EBOV inhibitory activity), the inhibition at 10 µM was around 70%.
`C=C1[C@@H](O)[C@@H]2O[C@]3(CC[C@H](/C=C/[C@@H](C)[C@@H]4CC(C)=C[C@@]5(O[C@H](C[C@@](C)(O)C(=O)O)CC[C@H]5O)O4)O3)CC[C@H]2O[C@@H]1[C@@H](O)C[C@H](C)[C@H]1O[C@@]2(CCCCO2)CC[C@H]1C` [okadaic acid]: the “increase of VP30 phosphopeptides (Thr-119 and Ser-124) vs DMSO control” value in the series with EBOV VP30 is on record as 3.3 fold.
For `CCNC(=O)NC(=O)C(C)OC(=O)c1c2c(nc3ccccc13)/C(=C\c1ccc(OC)c(OC)c1)CC2` (centres unmarked) [1E7-03], the “remained intact in mouse liver microsomes” value in series [2] is recorded as “over 90%”. Besides, the IC50 against PP1:cdNIPP1 RATA is above 20 µM; against PP1 MUT:cdNIPP1 RATA, above 20 µM; against PP1:cdNIPP1, 1500 nM; against PP1:cdNIPP1 helix MUT it was 2.4 µM; in the series with EBOV-eGFP [10], 7.2 µM; at PP1 MUT:cdNIPP1 it was 2.7 µM. For the same molecule, the “inhibition of EBOV gene expression (Renilla luciferase)” value in the series with EBOV minigenome (10 μM) is reported as “strongly inhibit”. For the same molecule, the “effect on cellular viability” value in the series on HEK293T cells is “no effect on cellular viability”. Besides, the “remaining in human serum” value (10 μM, 37°C, after 24 h) is recorded as 78%. In series [6], the “remaining in human liver microsomes” value was determined as 60%. The CC50 in the series “in vitro [8]” was above 300 µM.
